Experimental data as given in patent US9115089B2, “Methyl/fluoro-pyridinyl-methoxy substituted pyridinone-pyridinyl compounds and fluoro-pyrimidinyl-methoxy substituted pyridinone-pyridinyl compounds” (CONFLUENCE LIFE SCIENCES, INC., priority 2013, dated 2015).

Tests used:
Type in all cases: cell-based
[1] = test system: IL-1β production in human whole blood; experiment: Endotoxin-induced IL-1β production from human whole blood; details: LPS 100 ng/ml, 3 hours, read-out: HWB IL-1β IC50
Experimental: (§1) Human whole blood (HWB; 25-45 ml) was collected from an NSAID-free donor into vacutainer collection tubes containing sodium heparin (10 ml, 158 USP units), pooled and rocked gently before being distributed into each well of a 96-well round bottom tissue culture plate ([…]). Compounds ([…]/well, concentration response) are added and mixed gently for 15-20 seconds using a disposable 96 polypropylene pin tool before the plates are incubated at 37° C./5% CO2 for 1 hour. The HWB is stimulated with LPS (100 ng/ml) in a final assay volume of […]. After 3 hours, the plates are spun at 240×g for 5 minutes to pellet the red cells. The plasma is carefully transferred to another 96-well round bottom plate and diluted 2-fold with assay media (DMEM containing 10% fetal bovine serum (FBS) plus antibiotics). Finally, the diluted plasma ([…]/well) is transferred to Meso Scale detection plates for determination of IL-1, IL-6 or TNFα.

[2] = test system: TNFα production in human whole blood; experiment: Endotoxin-induced TNFα production from human whole blood; details: LPS 100 ng/ml, 3 hours, read-out: HWB TNFα IC50
Experimental: as §1

[3] = test system: TNFα production in U937 cells; experiment: LPS-induced TNFα production in differentiated U937 cells; details: Homo sapiens, U-937, LPS 0.1 μg/mL for 4 hours
Experimental: Therefore, inhibition of the p38 MAPK pathway will lower the inflammatory response by decreasing biosynthesis of proinflammatory cytokines. […] Evaluation of the potency and efficacy of p38 inhibitors to block cytokine production is carried out using the human U937 cell line. The U937 human pre-monocytic cell line is obtained from the American Type Culture Collection (Rockville, Md.). These cells are differentiated to a monocytic/macrophage phenotype as described by Burnette (Burnette et al, (2009). SD0006: a potent, selective and orally available inhibitor of p38 kinase, Pharmacology 84(1):42-60). Differentiated U937 cells are seeded into 96-well tissue culture plates (200,000 cells/well) in complete media. After 24 hours, the cells are pretreated for 60 minutes in the presence or absence of compound and then stimulated with LPS (0.1 μg/mL) for 4 hours. Culture media are then collected for determination of TNFα, IL-6 or IL-1β levels by ELISA. Cytokine concentrations are extrapolated from recombinant protein standard curves using a four-parameter logistic model and solving for IC50 after iterating to the best least-squares fit.

[4] = test system: IL-6 production in human whole blood; experiment: Endotoxin-induced IL-6 production from human whole blood; details: LPS 100 ng/ml, 3 hours, read-out: HWB IL-6 IC50
Experimental: as §1

[5] = test system: IL-6 production in A549 cells; experiment: IL-1-induced IL-6 production in A549 cells; details: Homo sapiens, 3 hours stimulation
Experimental: Adherent A549 cells (approximately 5 million per T75 cm^2 tissue culture flask) are grown in F-12K media containing 10% fetal bovine serum (FBS) plus antibiotics. The cells are trypsinized, washed and resuspended at 0.3 million per milliliter. A549 cells are then distributed into each well of a 96-well flat bottom tissue culture plate ([…]) and the 30,000 cells/well are allowed to recover, incubated, overnight. On the day of the assay fresh media ([…]) is added to the plates followed by the addition of compound ([…]/well, concentration response) for 1 hour. […] After 3 hours, cultured media ([…]/well) is transferred from the assay plate to a Meso Scale custom coated detection plate for determination of IL-6 levels. […] Read buffer ([…]/well, MSD 4× read buffer diluted 4-fold with dH2O) is added and the plate is read using the Meso Scale Sector Imager 6000. Upon electrical stimulation of the detection plate, co-reactants in the read buffer enhance an electrochemical reaction resulting in the release of energy in the form of light. This signal is captured by an internal CCD camera and quantitated. Viability of A549 cells is determined using an MTT assay. […] Isopropanol ([…]) is added to solubilize the resulting formazan crystals and the plate is read at 570 nm/650 nm using a Molecular Devices SpectraMax spectrophotometer.

IC50 [3]: 1.6 nM
IC50 [5]: 1.8 nM
Structure (SMILES): Cc1cnc(-c2ccnc(C(C)(C)O)n2)cc1-n1c(C)cc(OCc2ncc(F)cc2F)c(Cl)c1=O [Compound 49, 3-chloro-4-((3,5-difluoropyridin-2-yl)methoxy)-2′-(2-(2-hydroxypropan-2-yl)pyrimidin-4-yl)-5′,6-dimethyl-2H-[1,4′-bipyridin]-2-one]
IC50 [1]: 6 nM
IC50 [2]: 13 nM
IC50 [4]: 35 nM
